Results reported in US20070219266A1, “N-Acylated-3-(Benzoyl)-Pyrrolidines as 11-Beta-HSD1 Inhibitors Useful for the Treatment of Metabolic Disorders” (priority 2003, published 2007).
pIC50: −log10 of the molar value.

What follows are compounds tested against T1, human 11βHSD1 (Homo sapiens, UniProt P28845) (assay: HeLa GRE4-βGal/11βHSD1 cell reporter assay (cortisone to cortisol conversion, β-galactosidase readout)). Details: HeLa GRE4-βGal/11βHSD1 cells, cortisone 1 μM, overnight incubation, absorbance at 570 nm.
T1 construct: stably transfected with a construct containing full-length human 11βHSD1 enzyme (in pCMVHyg); expressed in transfected cells
Format: cell-based
Description: HeLa cells (human cervical carcinoma derived cells) were stably transfected with a construct containing four copies of the glucocorticoid response element (GRE) linked to a beta-galactosidase reporter gene (3 kb lac Z gene derived from pSV-B-galactosidase). These cells were then further stably transfected with a construct containing full-length human 11βHSD1 enzyme (in pCMVHyg) to create GRE4-βGal/11βHSD1 cells. The principal of the assay is as follows. Cortisone is freely taken up by the cells and is converted to cortisol by 11βHSD1 oxo-reductase activity and cortisol (but not cortisone) binds to and activates the glucocorticoid receptor. Activated glucocorticoid receptor then binds to the GRE and initiates transcription and translation of β-galactosidase. Enzyme activity can then be assayed with high sensitivity by colourimetric assay.
Cells were routinely cultured in DMEM (Invitrogen, Paisley, Renfrewshire, UK) containing 10% foetal calf serum (LabTech), 1% glutamine (Invitrogen), 1% penicillin & streptomycin (Invitrogen), 0.5 mg/ml G418 (Invitrogen) & 0.5 mg/ml hygromycin (Boehringer). Assay media was phenol red free-DMEM containing 1% glutamine, 1% penicillin & streptomycin.
Compounds (1 mM) to be tested were dissolved in dimethyl sulphoxide (DMSO) and serially diluted into assay media containing […]. […]
A cocktail (25 μl) consisting of 10× Z-buffer (600 mM Na2HPO4, 400 mM NaH2PO4.2H2O, 100 mM KCl, 10 mM MgSO4.7H2O, 500 mM β-mercaptoethanol, pH 7.0), SDS (0.2%), chlorophenol red-β-D-galactopyranoside (5 mM, Roche Diagnostics) was added per well and plates incubated at 37° C. for 3-4 hours. β-Galactosidase activity was indicated by a yellow to red colour change (absorbance at 570 nm) measured using a Tecan Spectrafluor Ultra.
The calculation of median inhibitory concentration (IC50) values for the inhibitors was performed using Origin 6.0 (Microcal Software, Northampton Mass. USA). Dose response curves for each inhibitor were plotted as OD units at each inhibitor concentration with relation to a maximum signal (cortisone, no compound) and IC50 values calculated. […]

T1 sequence (P28845 whole entry): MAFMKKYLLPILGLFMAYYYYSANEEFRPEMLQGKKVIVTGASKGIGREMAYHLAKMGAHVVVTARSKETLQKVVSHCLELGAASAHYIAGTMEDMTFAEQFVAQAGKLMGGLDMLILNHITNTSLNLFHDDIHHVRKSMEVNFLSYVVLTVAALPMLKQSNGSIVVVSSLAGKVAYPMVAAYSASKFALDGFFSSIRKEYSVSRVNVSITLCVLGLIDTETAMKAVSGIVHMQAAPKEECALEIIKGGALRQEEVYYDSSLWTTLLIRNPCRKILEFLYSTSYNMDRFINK

pIC50 | SMILES
7.12 | O=C(c1ccc(F)cc1)C1CCN(C(=O)c2ccc(Cl)cc2)C1 (stereo not drawn) [Example 5]
7.15 | O=C(c1ccc(F)cc1)C1CCN(C(=O)c2ccccc2Cl)C1 (stereo not drawn) [Example 7]
6.35 | O=C(c1ccc(F)cc1)C1CCN(S(=O)(=O)c2ccc(F)cc2)C1 (stereo not drawn) [Example 18]
